Columns and labels:
[1] = tested on: ABUTH (Abutilon theophrasti); assay: Postemergence herbicidal evaluation; assay type: in vivo, Medic.; settings: postemergence
Protocol: (§1) In the tests, seedling plants are grown in jiffy flats for about two weeks. […] After spraying, the plants are placed on greenhouse benches and are cared for in accordance with conventional greenhouse procedures. From four to five weeks after treatment, the seedling plants are examined and rated according to the rating system set forth below. Where more than one test is involved for a given compound, the data are averaged.
(§2) Results of herbicide evaluation are expressed on a rating scale (0-9). The scale is based upon a visual observation of plant stand, vigor, malformation, size, chlorosis and overall plant appearance as compared with a control.

[2] = tested on: AMBEL (Ambrosia artemisifolia); assay: Postemergence herbicidal evaluation; assay type: in vivo, L.; settings: postemergence
Protocol: as §1, §2

[3] = tested on: CASOB (Cassia obtusifolia); assay: Postemergence herbicidal evaluation; assay type: in vivo, L.; settings: postemergence
Protocol: as §1, §2

[4] = tested on: CHEAL (Chenopodium album); assay: Postemergence herbicidal evaluation; assay type: in vivo, L.; settings: postemergence
Protocol: as §1, §2

GALAP (Galium aparine) [5] = assay: Postemergence herbicidal evaluation; assay type: in vivo; settings: postemergence
Protocol: as §1, §2

[6] = tested on: IPOHE (Ipomoea hederacea); assay: Postemergence herbicidal evaluation; assay type: in vivo, (L.) Jacq.; settings: postemergence
Protocol: as §1, §2

[7] = tested on: ECHCG (Echinochloa crus-galli); assay: Postemergence herbicidal evaluation; assay type: in vivo, (L.) Beau; settings: postemergence
Protocol: as §1, §2

SETVI (Setaria viridis) [8] = assay: Postemergence herbicidal evaluation; assay type: in vivo, (L.) Beau; settings: postemergence
Protocol: In the tests, seedling plants are grown in jiffy flats for about two weeks. The test compounds are dispersed in 50/50 acetone/water mixtures containing 0.5% TWEEN® 20, a polyoxyethylene sorbitan monolaurate surfactant of Atlas Chemical Industries, in sufficient quantities to provide the equivalent of about 0.0040 kg to 1.000 kg per hectare of active compound when applied to the plants through a spray nozzle operating at 40 psi for a predetermined time. After spraying, the plants are placed on greenhouse benches and are cared for in accordance with conventional greenhouse procedures. From four to five weeks after treatment, the seedling plants are examined and rated according to the rating system set forth below. Where more than one test is involved for a given compound, the data are averaged.
as §2

[9] = tested on: GLXMAW (Soybean, Williams); assay: Postemergence herbicidal evaluation; assay type: in vivo, Glycine max, (L.) Merr. cv Williams; settings: postemergence
Protocol: as §1, §2

ORYSAT (Rice, Tebonnet) [10] = assay: Postemergence herbicidal evaluation; assay type: in vivo, Oryza sativa, (L.) Tebonnet; settings: postemergence
Protocol: as §1, §2

[11] = tested on: TRZAWR (Wheat, Winter, cv Riband); assay: Postemergence herbicidal evaluation; assay type: in vivo, Triticum aestivum; settings: postemergence
Protocol: as §1, §2

ZEAMX (Corn, Field) [12] = assay: Postemergence herbicidal evaluation; assay type: in vivo, Zea mays, L.; settings: postemergence
Protocol: as §1, §2

[13] = tested on: ABUTH (Abutilon theophrasti); assay: Preemergence herbicidal evaluation; assay type: in vivo, Medic.; settings: rated 4-5 weeks after treatment
Excerpt: as §2
(§3) The preemergence herbicidal activity of the test compounds of the present invention is exemplified by the following tests in which the seeds of a variety of monocotyledonous and dicotyledonous plants are separately mixed with potting soil and planted on top of approximately one inch of soil in separate pint cups. […] The treated cups are then placed on greenhouse benches, watered and cared for in accordance with conventional greenhouse procedures. From four to five weeks after treatment, the tests are terminated and each cup is examined and rated according to the rating system provided in Example 87. The plant species used and the compounds evaluated are the same as those shown in Example 87.

[14] = tested on: AMBEL (Ambrosia artemisifolia); assay: Preemergence herbicidal evaluation; assay type: in vivo, L.; settings: rated 4-5 weeks after treatment
Excerpt: as §2, §3

[15] = tested on: CASOB (Cassia obtusifolia); assay: Preemergence herbicidal evaluation; assay type: in vivo, L.; settings: rated 4-5 weeks after treatment
Excerpt: as §2, §3

[16] = tested on: CHEAL (Chenopodium album); assay: Preemergence herbicidal evaluation; assay type: in vivo, L.; settings: rated 4-5 weeks after treatment
Excerpt: as §2, §3

GALAP (Galium aparine) [17] = assay: Preemergence herbicidal evaluation; assay type: in vivo; settings: rated 4-5 weeks after treatment
Excerpt: as §2, §3

[18] = tested on: IPOHE (Ipomoea hederacea); assay: Preemergence herbicidal evaluation; assay type: in vivo, (L.) Jacq.; settings: rated 4-5 weeks after treatment
Excerpt: as §2, §3

[19] = tested on: ECHCG (Echinochloa crus-galli); assay: Preemergence herbicidal evaluation; assay type: in vivo, (L.) Beau; settings: rated 4-5 weeks after treatment
Excerpt: as §2, §3

SETVI (Setaria viridis) [20] = assay: Preemergence herbicidal evaluation; assay type: in vivo, (L.) Beau; settings: rated 4-5 weeks after treatment
Excerpt: as §2, §3

[21] = tested on: GLXMAW (Soybean, Williams); assay: Preemergence herbicidal evaluation; assay type: in vivo, Glycine max, (L.) Merr. cv Williams; settings: rated 4-5 weeks after treatment
Excerpt: as §2, §3

ORYSAT (Rice, Tebonnet) [22] = assay: Preemergence herbicidal evaluation; assay type: in vivo, Oryza sativa, (L.) Tebonnet; settings: rated 4-5 weeks after treatment
Excerpt: as §2, §3

[23] = tested on: TRZAWR (Wheat, Winter, cv Riband); assay: Preemergence herbicidal evaluation; assay type: in vivo, Triticum aestivum; settings: rated 4-5 weeks after treatment
Excerpt: as §2, §3

ZEAMX (Corn, Field) [24] = assay: Preemergence herbicidal evaluation; assay type: in vivo, Zea mays, L.; settings: rated 4-5 weeks after treatment
Excerpt: as §2, §3

[25] = tested on: ECHORC (Echinochloa oryzoides); assay: Flooded paddy, preemergence weed control; assay type: in vivo, Echinochloa oryzoides (Ard.) Fritsch.; settings: rated 3-4 weeks after treatment, 0-9 rating scale
Protocol: as §2
(§4) Preemergence herbicidal activity under flooded paddy conditions is determined as follows: plant seeds or propagating organs are planted in the top 0.5 cm of silt loam soil in 32 oz. plastic containers with a diameter of 10.5 cm and no drainage holes. Water is added to these containers and maintained at 1.5 to 3 cm above the soil surface for the duration of the experiment. […] The treated containers are placed on greenhouse benches and cared for in accordance with conventional greenhouse procedures.

CYPIR (Cyperus iria) = assay: Flooded paddy, preemergence weed control; assay type: in vivo; settings: rated 3-4 weeks after treatment, 0-9 rating scale
Protocol: as §2, §4

[26] = tested on: MOOVA (Monochoria vaginalis); assay: Flooded paddy, preemergence weed control; assay type: in vivo, Presl.; settings: rated 3-4 weeks after treatment, 0-9 rating scale
Protocol: as §2, §4

[27] = tested on: SAGPY (Sagittaria pygmaea); assay: Flooded paddy, preemergence weed control; assay type: in vivo, L.; settings: rated 3-4 weeks after treatment, 0-9 rating scale
Protocol: as §2, §4

Substance: 3-[3-[5-(bromomethyl)-5-hydroxy-m-diaxan-2-yl]-1,2-benzisothiazol-5-yl]-1-methyl-6-(trifluoromethyl)uracil [Compound 69]
- ABUTH herbicidal rating ([1]; rate 0.0320 kg/ha): 9.0
- ABUTH herbicidal rating ([1]; rate 0.0620 kg/ha): 9.0
- AMBEL herbicidal rating ([2]; rate 0.0320 kg/ha): 9.0
- AMBEL herbicidal rating ([2]; rate 0.0620 kg/ha): 9.0
- CASOB herbicidal rating ([3]; rate 0.0320 kg/ha): 0.0
- CASOB herbicidal rating ([3]; rate 0.0620 kg/ha): 2.0
- CHEAL herbicidal rating ([4]; rate 0.0320 kg/ha): 9.0
- CHEAL herbicidal rating ([4]; rate 0.0620 kg/ha): 7.0
- GALAP herbicidal rating (GALAP (Galium aparine) [5]; rate 0.0320 kg/ha): 4.0
- GALAP herbicidal rating (GALAP (Galium aparine) [5]; rate 0.0620 kg/ha): 6.0
- IPOHE herbicidal rating ([6]; rate 0.0320 kg/ha): 9.0
- IPOHE herbicidal rating ([6]; rate 0.0620 kg/ha): 9.0
- ECHCG herbicidal rating ([7]; rate 0.0320 kg/ha): 2.0
- ECHCG herbicidal rating ([7]; rate 0.0620 kg/ha): 3.0
- SETVI herbicidal rating (SETVI (Setaria viridis) [8]; rate 0.0320 kg/ha): 2.0
- SETVI herbicidal rating (SETVI (Setaria viridis) [8]; rate 0.0620 kg/ha): 4.0
- GLXMAW herbicidal rating ([9]; rate 0.0320 kg/ha): 7.5
- GLXMAW herbicidal rating ([9]; rate 0.0620 kg/ha): 7.0
- ORYSAT herbicidal rating (ORYSAT (Rice, Tebonnet) [10]; rate 0.0320 kg/ha): 4.0
- ORYSAT herbicidal rating (ORYSAT (Rice, Tebonnet) [10]; rate 0.0620 kg/ha): 4.0
- TRZAWR herbicidal rating ([11]; rate 0.0320 kg/ha): 4.0
- TRZAWR herbicidal rating ([11]; rate 0.0620 kg/ha): 4.5
- ZEAMX herbicidal rating (ZEAMX (Corn, Field) [12]; rate 0.0320 kg/ha): 5.5
- ZEAMX herbicidal rating (ZEAMX (Corn, Field) [12]; rate 0.0620 kg/ha): 5.5
- Preemergence herbicidal rating ABUTH ([13]; Rate 0.0620 kg/ha): 9.0
- Preemergence herbicidal rating ABUTH ([13]; Rate 0.1250 kg/ha): 9.0
- Preemergence herbicidal rating ABUTH ([13]; Rate 0.2500 kg/ha): 9.0
- Preemergence herbicidal rating AMBEL ([14]; Rate 0.0620 kg/ha): 7.0
- Preemergence herbicidal rating AMBEL ([14]; Rate 0.1250 kg/ha): 9.0
- Preemergence herbicidal rating AMBEL ([14]; Rate 0.2500 kg/ha): 8.0
- Preemergence herbicidal rating CASOB ([15]; Rate 0.0620 kg/ha): 0.0
- Preemergence herbicidal rating CASOB ([15]; Rate 0.1250 kg/ha): 1.0
- Preemergence herbicidal rating CASOB ([15]; Rate 0.2500 kg/ha): 6.0
- Preemergence herbicidal rating CHEAL ([16]; Rate 0.0620 kg/ha): 9.0
- Preemergence herbicidal rating CHEAL ([16]; Rate 0.1250 kg/ha): 9.0
- Preemergence herbicidal rating CHEAL ([16]; Rate 0.2500 kg/ha): 9.0
- Preemergence herbicidal rating GALAP (GALAP (Galium aparine) [17]; Rate 0.0620 kg/ha): 7.0
- Preemergence herbicidal rating GALAP (GALAP (Galium aparine) [17]; Rate 0.1250 kg/ha): 9.0
- Preemergence herbicidal rating GALAP (GALAP (Galium aparine) [17]; Rate 0.2500 kg/ha): 9.0
- Preemergence herbicidal rating IPOHE ([18]; Rate 0.0620 kg/ha): 1.0
- Preemergence herbicidal rating IPOHE ([18]; Rate 0.1250 kg/ha): 9.0
- Preemergence herbicidal rating IPOHE ([18]; Rate 0.2500 kg/ha): 9.0
- Preemergence herbicidal rating ECHCG ([19]; Rate 0.0620 kg/ha): 4.0
- Preemergence herbicidal rating ECHCG ([19]; Rate 0.1250 kg/ha): 8.0
- Preemergence herbicidal rating ECHCG ([19]; Rate 0.2500 kg/ha): 8.0
- Preemergence herbicidal rating SETVI (SETVI (Setaria viridis) [20]; Rate 0.0620 kg/ha): 7.0
- Preemergence herbicidal rating SETVI (SETVI (Setaria viridis) [20]; Rate 0.1250 kg/ha): 9.0
- Preemergence herbicidal rating SETVI (SETVI (Setaria viridis) [20]; Rate 0.2500 kg/ha): 9.0
- Preemergence herbicidal rating GLXMAW ([21]; Rate 0.0620 kg/ha): 2.0
- Preemergence herbicidal rating GLXMAW ([21]; Rate 0.1250 kg/ha): 9.0
- Preemergence herbicidal rating GLXMAW ([21]; Rate 0.2500 kg/ha): 9.0
- Preemergence herbicidal rating ORYSAT (ORYSAT (Rice, Tebonnet) [22]; Rate 0.0620 kg/ha): 1.0
- Preemergence herbicidal rating ORYSAT (ORYSAT (Rice, Tebonnet) [22]; Rate 0.1250 kg/ha): 2.0
- Preemergence herbicidal rating ORYSAT (ORYSAT (Rice, Tebonnet) [22]; Rate 0.2500 kg/ha): 5.0
- Preemergence herbicidal rating TRZAWR ([23]; Rate 0.0620 kg/ha): 1.0
- Preemergence herbicidal rating TRZAWR ([23]; Rate 0.1250 kg/ha): 2.0
- Preemergence herbicidal rating TRZAWR ([23]; Rate 0.2500 kg/ha): 5.0
- Preemergence herbicidal rating ZEAMX (ZEAMX (Corn, Field) [24]; Rate 0.0620 kg/ha): 1.0
- Preemergence herbicidal rating ZEAMX (ZEAMX (Corn, Field) [24]; Rate 0.1250 kg/ha): 3.0
- Preemergence herbicidal rating ZEAMX (ZEAMX (Corn, Field) [24]; Rate 0.2500 kg/ha): 7.0
- herbicidal rating, ECHORC ([25]; rate 0.0080 kg/ha): 0.0
- herbicidal rating, ECHORC ([25]; rate 0.0320 kg/ha): 0.0
- herbicidal rating, ECHORC ([25]; rate 0.1250 kg/ha): 3.0
- herbicidal rating, CYPIR (CYPIR (Cyperus iria); rate 0.0080 kg/ha): 0.0
- herbicidal rating, CYPIR (CYPIR (Cyperus iria); rate 0.0320 kg/ha): 0.0
- herbicidal rating, CYPIR (CYPIR (Cyperus iria); rate 0.1250 kg/ha): 3.0
- herbicidal rating, MOOVA ([26]; rate 0.0080 kg/ha): 0.0
- herbicidal rating, MOOVA ([26]; rate 0.0320 kg/ha): 0.0
- herbicidal rating, MOOVA ([26]; rate 0.1250 kg/ha): 3.0
- herbicidal rating, SAGPY ([27]; rate 0.0080 kg/ha): 0.0
- herbicidal rating, SAGPY ([27]; rate 0.0320 kg/ha): 0.0
- herbicidal rating, SAGPY ([27]; rate 0.1250 kg/ha): 3.0

From US6706663B2, “Herbicidal 3-heterocyclic substituted benzisothiazole and benzisoxazole compounds” (Wyeth, priority 2000, dated 2004)
